Data published in patent publication US5962516A, “Immunosuppressive compounds and methods” (priority 1999, dated 1999).
Structures can show the parent of a compound that is named as a salt. Where two headings read alike, the source gives them in different places.

Columns and labels:
[1] = system: mixed lymphocyte reaction (spleen cells from female C57BL/6 mice, stimulated with Balb/C spleen cells); test: Mixed lymphocyte reaction (MLR) assay; assay type: cell-based, mouse; details: 50% suppression of proliferation; for IC50: read-out: MLR Assay IC50
Experimental: Inhibition of cell proliferation by the subject compounds was assayed in the mixed lymphocyte reaction (MLR) (Bradley, 1980; Mishell, 1980). Spleen cells from female C57BL/6 mice, the "responder" cells, were prepared and co-cultured alone or in the presence of varying concentrations of the test compounds, with irradiated spleen cells prepared from female Balb/C mice, the "stimulator" cells. Prior irradiation of the stimulator cells rendered them unable to proliferate. A sample of the responder cells was also irradiated for use as a control. The non-irradiated responder cells proliferate in the presence of the allogenic stimulator cells. After a 78-hour incubation, tritiated thymidine was added to the mixed cell cultures, and incorporation of the labeled nucleotide into DNA was measured as an index of cell proliferation.
In this study, the responder cells (R) were spleen cells from female C57BL16 mice, and the stimulator cells (S) were spleen cells from female Balb/C mice 6 to 8 weeks of age (Jackson, Bar Harbor, Me.). The spleens were aseptically removed from the mice and placed into 10 ml of cold HBSS in a sterile petri dish. The spleen was cut in half and gently pressed between the frosted ends of 2 sterile microslides. The cell suspension was then filtered through sterile nylon mesh (Nytex, Tetco #HD-3-85) into a 15 ml conical polypropylene centrifuge tube and centrifuged at 200×g for 10 minutes in a Beckman GPR tabletop centrifuge (GH-3.7 Rotor). Following an additional wash in HBSS, the spleen cells were resuspended in RPMI 1640 medium (Gibco) containing 50 uM 2-mercaptoethanol, 2 mM glutamine, 100 U/ml penicillin, 100 μg/ml streptomycin and 10% heat-inactivated fetal bovine serum.
The stimulator cells (S) and part of the responder cells (R) were diluted at 10×10^6 cells/ml and irradiated at 20 cGy with a Cesium Irradiator (Department of Radiation Oncology, Stanford University, California) to inhibit proliferation. The irradiated cells were washed once to remove any toxic free radicals and their products resulting from irradiation. The responder cells (R), irradiated stimulator cells (Sx) and irradiated responder cell (Rx) were all diluted to 4×10^6 cells/ml.
In the assay, 4×10^5 cells of R were cocultured with 4×10^5 cells of Sx in 200 μl of medium in round bottom 96 well tissue culture plates. Fifty micro-liters of test samples at various concentrations were added to the cells. The wells receiving no test samples would get the maximum proliferation. Several controls were used in the assay. The irradiated responder cells (Rx) were also added to the responder cells with and without the test samples. Rx or Sx alone were checked to make sure no proliferation occurred after irradiation. The spontaneous proliferation of R was also measured.
The culture plates were incubated at 37° C. in a 5% CO2 incubator for four days. The cells were labelled with 1 μCi of (^3 H)-thymidine (Amersham, 49 Ci/mmol) in 20 μl of medium for the last 18 hours. Cells were then harvested and counted. The results were reported as counts per minute (cpm) per well. Percent of suppression and IC50 (concentration of sample producing 50% suppression of proliferation) were used to indicate the suppressive activity of the sample. Sample cpm was calculated as (R+Sx+sample)cpm-(R+Rx+sample)cpm; control cpm was calculated as (R+Sx)cpm-(R+Rx)cpm. Percent suppression of MLR activity was calculated as (1-sample cpm/control cpm)×100. IC50 was determined from percent suppression to indicate the suppressive activity of the sample.

[2] = system: IL-1β action on murine thymocytes; test: Inhibition of IL-1 action (IL-1 assay): suppression of IL-1β + PHA stimulated murine thymocyte proliferation; assay type: cell-based, mouse (C3H/HeN)
Experimental: The ability of the above compounds to suppress the cell-proliferative effect of IL-1β in vitro (O'Gara, 1990) was examined as described in Example 11. Mouse thymocytes in culture were stimulated with IL-1β in the presence of phytohemagglutinin (PHA) and increasing concentrations of triptolide (control) and triptolide derivatives. The cells were cultured for 72 hours, and during the last 18 hours, incubated with tritiated thymidine. DNA synthesis was assessed by measuring incorporation of radiolabeled thymidine. The results expressed in terms of IC50 (concentration effective to cause 50% suppression of proliferation) are shown in Table 1.
C3H/HeN mouse thymocytes were prepared and the action of IL-1 together with PHA, which stimulate proliferation of thymocyte, was measured using standard techniques (O'Gara, 1990; Mishell, 1980). Three- to six-week old C3H/HeN male mice (Simonson Laboratory, Gilroy, Calif.) were sacrificed by CO2 inhalation. Thymi were removed, separated from adherent non-thymic tissue, homogenized in Hank's balanced salt solution (HBSS, Gibco) using a glass homogenizer, and centrifuged at 200×g for 10 minutes at 15° C. Following an additional wash in HBSS, the thymocytes were resuspended in RPMI 1640 medium containing 50 uM 2-mercaptoethanol, 2 mM glutamine, 1 mM sodium pyruvate, non-essential amino acids 100 U/ml penicillin, 100 μg/ml streptomycin, and 10% heat-inactivated fetal bovine serum.
Cells were cultured in round-bottom 96 well microtiter tissue culture plates, 6×10^5 cells per well, in a volume of 100 μl. Recombinant human IL-1β (R & D Systems #201-LB) together with Phytohemagglutinin P (PHA, Pharmacia) were added to the cells in volume of 25 μl per well to achieve a final concentration of 0.08 ng/ml and 10 μg/ml, respectively. Samples were dissolved in DMSO (10 mg/ml), then diluted in culture medium. Twenty five microliters of the test sample was added to each well to achieve the final compound concentrations for each experiment. Cells with PHA together with IL-1 served as controls. The total volume for each well was 150 μl.
Plates were incubated at 37° C. in a 5% CO2 incubator for 72 hours. Fifty microliters of culture medium containing 0.5 μCi (^3 H)-thymidine (Amersham, 49 Ci/mmol) was added to each well prior to the last 18 hours of incubation. Cells were then harvested and counted. The results were reported as counts per minute (cpm) per 6×10^5 cells.
The following formula was used to calculate the percent of suppression of IL-1 activity, and IC50 (concentration of sample yielding 50% suppression of proliferation) was used to indicate the suppressive activity of the sample.
% suppression of IL-1 activity=(1-sample cpm/(IL-1+PHA control

[3] = 50% suppression of proliferation; 72 h culture
[4] = read-out: IL-1 Assay IC50; 50% suppression of proliferation; 72 h culture

SMILES	MLR Assay IC50 [1]	IC50 [1]	IL-1 Assay IC50 [2, 3]	IC50 [2, 4]	also measured
CC(C)C12OC1C1OC13C1(C)CCC4=C(COC4=O)C1CC1OC13C2OC(=O)CCC(=O)O (stereo not drawn) [YM-273, Triptolide Succinate Tris Salt]	0.18 µg/mL	310 nM	0.462 µg/mL	800 nM	–
CC(C)[C@]12O[C@H]1[C@@H]1O[C@]13[C@]1(O[C@H]1C[C@H]1C4=C(CC[C@@]13C)C(=O)OC4)[C@@H]2O [Triptolide, triptolide, reference compound]	–	–	–	–	IC50 ([1]; Mus musculus, Lymphocyte): 0.0009 µg/mL; inhibition of IL-1β action in words [2]: potent inhibitor of IL-1β action; IC50 ([2]; 50% suppression of proliferation; 72 h culture; read-out: IL-1 Assay IC50): ~5 nM
CC(C)C12OC1C1OC13C1(C)CCC4=C(COC4=O)C1CC1OC13C2OC(=O)CCC(=O)O (stereo not drawn) [YM-274, Triptolide Succinate Sodium Salt]	–	–	–	–	MLR Assay IC50 ([1]; Succinate Sodium Salt): 0.09 µg/mL; IC50 ([1]; Succinate Sodium Salt): 187 nM; IL-1 Assay IC50 ([2]; 50% suppression of proliferation; 72 h culture; Succinate Sodium Salt): 0.181 µg/mL; IC50 ([2]; read-out: IL-1 Assay IC50; 50% suppression of proliferation; 72 h culture; Succinate Sodium Salt): 376 nM
CC(C)C12OC1C1OC13C1(C)CCC4=C(COC4=O)C1CC1OC13C2OC(=O)CCC(=O)O (stereo not drawn) [YM-262, Triptolide Succinate]	0.086 µg/mL	187 nM	0.181 µg/mL	393 nM	–
